The source of these data is article PMC5121239, “Muscle-Type Nicotinic Receptor Modulation by 2,6-Dimethylaniline, a Molecule Resembling the Hydrophobic Moiety of Lidocaine” (Frontiers in Molecular Neuroscience, 2016).

Test [1] addresses T1, muscle-type nicotinic acetylcholine receptor (nAChR) (Torpedo marmorata, UniProt P02711+Q6S3H8+Q6S3H9+Q6S3I0).
T1 construct: gene CHRNA1; purified electroplax nAChR reconstituted in asolectin lipids and microtransplanted to Xenopus oocytes; with nAChR beta, gamma and delta subunits (alpha1, alpha2, beta, gamma, delta heteropentamer)
Kind of test: two-electrode voltage clamp in Xenopus oocytes, agonist concentration-response. The format is cell-based.

For test [2], the target named is T1, muscle-type nicotinic acetylcholine receptor (nAChR). As to the kind of experiment: two-electrode voltage clamp in Xenopus oocytes, inhibition of current evoked by […] ACh. The format is cell-based.

Each structure is given as a SMILES string.

T1 sequence (P02711 25-461): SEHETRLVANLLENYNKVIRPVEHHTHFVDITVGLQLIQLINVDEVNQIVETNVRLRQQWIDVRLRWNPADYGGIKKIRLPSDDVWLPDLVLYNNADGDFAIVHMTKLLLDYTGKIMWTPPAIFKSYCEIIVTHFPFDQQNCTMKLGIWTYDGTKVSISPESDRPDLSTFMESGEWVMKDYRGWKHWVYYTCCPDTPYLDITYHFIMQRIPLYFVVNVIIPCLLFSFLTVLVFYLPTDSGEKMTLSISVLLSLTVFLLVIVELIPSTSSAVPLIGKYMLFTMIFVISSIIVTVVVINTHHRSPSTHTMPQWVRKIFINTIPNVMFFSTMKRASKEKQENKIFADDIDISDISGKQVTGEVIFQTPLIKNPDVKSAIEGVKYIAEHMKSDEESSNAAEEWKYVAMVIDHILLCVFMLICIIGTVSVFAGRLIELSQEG
T1 sequence (Q6S3I0 25-493): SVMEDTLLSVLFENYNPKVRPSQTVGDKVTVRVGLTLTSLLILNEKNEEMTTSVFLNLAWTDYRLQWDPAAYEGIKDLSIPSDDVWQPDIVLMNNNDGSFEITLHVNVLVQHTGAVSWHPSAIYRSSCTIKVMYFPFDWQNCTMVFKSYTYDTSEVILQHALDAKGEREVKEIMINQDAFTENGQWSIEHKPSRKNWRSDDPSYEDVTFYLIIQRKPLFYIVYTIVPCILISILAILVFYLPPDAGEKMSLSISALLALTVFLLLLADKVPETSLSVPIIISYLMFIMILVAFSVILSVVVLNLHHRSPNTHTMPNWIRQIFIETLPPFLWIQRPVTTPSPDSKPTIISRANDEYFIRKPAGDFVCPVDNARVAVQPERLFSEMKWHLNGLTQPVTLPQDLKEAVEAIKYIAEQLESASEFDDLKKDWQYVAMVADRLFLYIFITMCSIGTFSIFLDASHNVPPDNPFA
T1 sequence (Q6S3H9 18-505): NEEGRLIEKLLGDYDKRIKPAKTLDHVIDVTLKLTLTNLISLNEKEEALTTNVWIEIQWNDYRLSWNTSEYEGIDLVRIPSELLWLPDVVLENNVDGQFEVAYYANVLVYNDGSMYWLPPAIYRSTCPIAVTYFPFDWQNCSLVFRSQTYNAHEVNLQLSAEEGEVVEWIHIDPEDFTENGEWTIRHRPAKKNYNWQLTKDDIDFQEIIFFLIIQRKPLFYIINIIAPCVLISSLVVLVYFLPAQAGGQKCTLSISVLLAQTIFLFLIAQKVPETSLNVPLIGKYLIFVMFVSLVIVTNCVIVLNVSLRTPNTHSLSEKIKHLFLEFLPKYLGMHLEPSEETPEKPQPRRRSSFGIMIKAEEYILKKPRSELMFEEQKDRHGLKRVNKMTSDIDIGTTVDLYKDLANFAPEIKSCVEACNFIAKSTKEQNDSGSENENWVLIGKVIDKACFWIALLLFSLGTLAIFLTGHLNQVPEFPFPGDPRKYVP
T1 sequence (Q6S3H8 22-522): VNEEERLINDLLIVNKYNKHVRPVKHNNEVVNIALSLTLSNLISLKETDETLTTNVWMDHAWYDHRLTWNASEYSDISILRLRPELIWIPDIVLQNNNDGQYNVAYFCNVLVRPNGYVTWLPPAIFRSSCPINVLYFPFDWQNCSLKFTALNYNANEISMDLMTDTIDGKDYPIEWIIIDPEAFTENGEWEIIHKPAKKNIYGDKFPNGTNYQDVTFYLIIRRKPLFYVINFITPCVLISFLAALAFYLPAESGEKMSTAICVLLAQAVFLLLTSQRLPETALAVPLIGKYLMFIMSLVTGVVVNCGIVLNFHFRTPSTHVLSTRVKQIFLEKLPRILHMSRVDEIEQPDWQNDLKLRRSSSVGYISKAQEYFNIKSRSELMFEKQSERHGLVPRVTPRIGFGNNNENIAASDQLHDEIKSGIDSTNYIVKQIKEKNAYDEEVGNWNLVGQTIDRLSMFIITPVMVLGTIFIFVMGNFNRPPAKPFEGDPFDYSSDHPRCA

In the case of `CC(=O)OCC[N+](C)(C)C` [ACh, acetylcholine], the EC50 in test [1] is 29 µM.

The compound `Cc1cccc(C)c1N` [DMA, 2,6-dimethylaniline] had a half-inhibitory concentration (IC50) in test [2] of 2100 µM.
